Data on seven compounds can be found in paper PMC12203311, “Design, synthesis, in silico and in vitro evaluation of pyrrole–indole hybrids as dual tubulin and aromatase inhibitors with potent anticancer activities” (RSC Advances, 2025).

One data set deals with T1, porcine brain tubulin (Sus scrofa, UniProt P02550+P02554).
T1 construct: a solution containing porcine brain tubulin (2 mg mL^−1); purchased Cytoskeleton BK011P; host or cells: porcine brain (tissue-purified)
Kind of data set: Tubulin polymerisation assay (fluorescence-based). Format: biochemical. Particulars: 10 µM, 37 °C. How it is done:
The tubulin polymerisation experimental protocol followed the method described in this literature.[28] The experimental was using fluorescence-based assay kit (Cytoskeleton, catalog no. BK011P). In Brief, 5 µL of test compounds was added to a 96-well plate, then mix with 50 µL of a solution containing porcine brain tubulin (2 mg mL^−1) in buffer with 20% glycerol and 1 mM GTP. A microplate reader (Varioskan™ LUX multimode microplate reader, Thermo Scientific™) was used to measure fluorescence intensity every 60 seconds for 60 minutes, with excitation at 360 nm and emission at 450 nm, maintained at 37 °C throughout the experiment.

The subject of a further data set is SF-268. As to the kind of experiment: NCI60 five-dose screen. Particulars: Homo sapiens, SF-268, CNS cancer; for CC50: read-out: LC50 (the source's name). The class given is cell-based.
A further data set concerns PC-3. Kind of data set: NCI60 five-dose screen. Format: cell-based. To be noted: Homo sapiens, PC-3, prostate cancer; for CC50: read-out: LC50 (the source's name).
In another data set the test system is SF-295. As to the kind of experiment: NCI60 five-dose screen. Format: cell-based. Particulars: Homo sapiens, SF-295, CNS cancer; for CC50: read-out: LC50 (the source's name).
A further data set has as its system DU-145. Kind of data set: NCI60 five-dose screen. The class given is cell-based. To be noted: Homo sapiens, DU-145, prostate cancer; for CC50: read-out: LC50 (the source's name).
The test system of the next data set is MDA-MB-468. Kind of data set: NCI60 five-dose screen. The class given is cell-based. To be noted: Homo sapiens, MDA-MB-468, breast cancer; for CC50: read-out: LC50 (the source's name).
A further data set has as its system A549/ATCC. As to the kind of experiment: NCI60 five-dose screen. Format: cell-based. To be noted: Homo sapiens, NSC lung cancer; for CC50: read-out: LC50 (the source's name).
In a further data set the test system is ACHN. As to the kind of experiment: NCI60 five-dose screen. Format: cell-based. To be noted: Homo sapiens, renal cancer; for CC50: read-out: LC50 (the source's name).
A further data set has as its system SN12C. Kind of data set: NCI60 five-dose screen. To be noted: Homo sapiens, renal cancer; for CC50: read-out: LC50 (the source's name). Format: cell-based.
A further data set deals with SR. As to the kind of experiment: NCI60 five-dose screen. The class given is cell-based. To be noted: Homo sapiens, leukemia; for CC50: read-out: LC50 (the source's name).
A further data set concerns COLO 205. As to the kind of experiment: NCI60 five-dose screen. Format: cell-based, human. To be noted: for CC50: read-out: LC50 (the source's name).
In the next data set the test system is OVCAR-4. Kind of data set: NCI60 five-dose screen. Format: cell-based. Particulars: Homo sapiens, OVCAR-4, ovarian cancer; for CC50: read-out: LC50 (the source's name).
[1] abbreviates: Homo sapiens, COLO 205, COLO 205, colon cancer.
Setting [2] is: Homo sapiens, COLO 205, colon cancer.

Like-named read-outs stand apart in the source and are kept apart here.

One may read the GI50 as the concentration at which growth is held to half of that of the control. Low values mean greater sensitivity of the cells, high ones lower sensitivity of the cells.

T1 sequence (P02554 whole entry): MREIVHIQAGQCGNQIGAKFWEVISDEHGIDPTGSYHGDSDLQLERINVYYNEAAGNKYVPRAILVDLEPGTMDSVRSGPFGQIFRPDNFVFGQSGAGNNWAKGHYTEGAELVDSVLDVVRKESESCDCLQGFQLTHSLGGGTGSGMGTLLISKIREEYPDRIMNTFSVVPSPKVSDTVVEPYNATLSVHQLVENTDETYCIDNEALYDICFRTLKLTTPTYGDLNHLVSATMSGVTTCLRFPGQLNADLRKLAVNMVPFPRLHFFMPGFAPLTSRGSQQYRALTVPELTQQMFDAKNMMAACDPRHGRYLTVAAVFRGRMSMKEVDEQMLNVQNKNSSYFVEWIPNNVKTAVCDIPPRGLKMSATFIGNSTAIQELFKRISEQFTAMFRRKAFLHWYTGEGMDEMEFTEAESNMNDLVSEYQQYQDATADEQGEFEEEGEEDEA
T1 sequence (P02550 whole entry): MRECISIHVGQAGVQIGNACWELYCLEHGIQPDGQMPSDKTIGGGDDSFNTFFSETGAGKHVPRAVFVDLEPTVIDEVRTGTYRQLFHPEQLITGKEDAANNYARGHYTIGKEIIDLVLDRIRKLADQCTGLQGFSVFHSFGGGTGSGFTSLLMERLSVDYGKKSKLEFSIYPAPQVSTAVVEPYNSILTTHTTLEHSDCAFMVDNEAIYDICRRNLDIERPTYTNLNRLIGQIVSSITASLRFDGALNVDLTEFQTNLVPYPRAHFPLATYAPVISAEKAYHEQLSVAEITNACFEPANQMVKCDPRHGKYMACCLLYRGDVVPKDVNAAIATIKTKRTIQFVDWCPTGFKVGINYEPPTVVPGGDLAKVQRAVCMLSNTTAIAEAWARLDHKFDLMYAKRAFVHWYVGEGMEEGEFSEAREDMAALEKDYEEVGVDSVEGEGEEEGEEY

Regarding `O=C(N/N=C/c1ccc[nH]1)c1[nH]c2ccc(Br)cc2c1-c1ccccc1` [Derivative 3a, (E)-N′-((1H-Pyrrol-2-yl)methylene)-5-bromo-3-phenyl-1H-indole-2-carbohydrazide], the “RFU in tubulin polymerization assay” value at porcine brain tubulin is recorded as around 55 arbitrary units. For the same compound, the GI50 in the data set on SF-268 is 995 nM; in the data set on PC-3, 344 nM; with SF-295, 224 nM; in the data set with DU-145, 429 nM; in the data set with MDA-MB-468, 209 nM; in the data set on A549/ATCC it was 357 nM. Also, the GI50 in the data set with ACHN was 355 nM; in the data set with SN12C, 371 nM; in the data set with SR, 160 nM; in the data set with COLO 205 (setting [2]), 261 nM; in the data set with OVCAR-4, 814 nM. The CC50 worked out at 56400 nM with SF-268; 29600 nM in the data set on PC-3; 23200 nM in the data set on SF-295; 33300 nM in the data set with DU-145; 42100 nM in the data set with MDA-MB-468; 33600 nM in the data set with A549/ATCC. Besides, the CC50 was 21200 nM with ACHN; 3970 nM in the data set on SN12C; above 100000 nM in the data set with SR; 35100 nM in the data set with COLO 205 (setting [1]); 33600 nM in the data set with OVCAR-4.

In the case of `O=C(N/N=C/c1cc(Br)c[nH]1)c1[nH]c2ccc(Br)cc2c1-c1ccccc1` [Derivative 3e, (E)-5-Bromo-N′-((4-bromo-1H-pyrrol-2-yl)methylene)-3-phenyl-1H-indole-2-carbohydrazide], the “RFU in tubulin polymerization assay” value at porcine brain tubulin is recorded as around 50 arbitrary units. Also, the concentration for 50% growth inhibition (GI50) with SF-268 came to 529 nM; in the data set with PC-3, 382 nM; in the data set on SF-295, 254 nM; in the data set on DU-145, 352 nM; in the data set with MDA-MB-468 it was 231 nM; in the data set on A549/ATCC, 395 nM. Besides, the 50% growth inhibitory concentration (GI50) stood at 418 nM in the data set with ACHN, 310 nM in the data set on SN12C, 192 nM in the data set on COLO 205 (setting [2]) and 1350 nM in the data set on OVCAR-4. Moreover, the CC50 turned out to be 52900 nM in the data set with SF-268; 38100 nM with PC-3; 25900 nM in the data set with SF-295; 29700 nM in the data set with DU-145; 13000 nM in the data set on MDA-MB-468; 56400 nM with A549/ATCC. Besides, the CC50 stood at 23500 nM with ACHN; 5490 nM in the data set on SN12C; 884 nM in the data set with COLO 205 (COLO 205, colon cancer); 890 nM in the data set on COLO 205 (setting [1]); 40500 nM with OVCAR-4.

With `O=C(N/N=C/c1[nH]ccc1Cl)c1[nH]c2ccc(Br)cc2c1-c1ccccc1` [Derivative 3g, (E)-5-Bromo-N′-((3-chloro-1H-pyrrol-2-yl)methylene)-3-phenyl-1H-indole-2-carbohydrazide], the “tubulin inhibition” value at porcine brain tubulin is reported as “weak tubulin inhibitors”. The 50% growth inhibitory concentration (GI50) with SF-268 turned out to be 1760 nM; with PC-3, 826 nM; in the data set with SF-295, 501 nM; in the data set on DU-145, 1580 nM; in the data set with MDA-MB-468 it was 297 nM; in the data set on A549/ATCC it was 838 nM. The 50% growth inhibitory concentration (GI50) in the data set on ACHN is 627 nM; in the data set with SN12C, 1340 nM; in the data set with COLO 205 (setting [2]), 1660 nM; in the data set on OVCAR-4, 3090 nM. Moreover, the CC50 in the data set on SF-268 worked out at 53000 nM; in the data set on PC-3, 63600 nM; with SF-295 it was 26000 nM; in the data set on DU-145 it was 33100 nM; in the data set on MDA-MB-468, 24700 nM; in the data set on A549/ATCC, 53400 nM. The CC50 was found to be 34500 nM with ACHN, 29200 nM with SN12C, 40300 nM in the data set on COLO 205 (setting [1]) and 43500 nM in the data set with OVCAR-4.

Take `O=C(N/N=C/c1ccc([N+](=O)[O-])[nH]1)c1[nH]c2ccc(Br)cc2c1-c1ccccc1` [Derivative 3p, (E)-5-Bromo-N′-((5-nitro-1H-pyrrol-2-yl)methylene)-3-phenyl-1H-indole-2-carbohydrazide]: at porcine brain tubulin, the “RFU in tubulin polymerization assay” value is listed as around 50 arbitrary units. For the same compound, the GI50 worked out at 1470 nM in the data set on SF-268; 1200 nM in the data set on PC-3; 413 nM with SF-295; 1840 nM in the data set with DU-145; 873 nM in the data set on MDA-MB-468; 2230 nM in the data set on A549/ATCC. The GI50 worked out at 1260 nM in the data set on ACHN; 1240 nM with SN12C; 354 nM with SR; 1520 nM in the data set with COLO 205 (setting [2]); 679 nM with OVCAR-4. For the same compound, the CC50 in the data set with SF-268 is 44200 nM; in the data set with PC-3 it was 78500 nM; with SF-295, 29900 nM; in the data set with DU-145 it was 32500 nM; in the data set with MDA-MB-468 it was 34700 nM; in the data set with A549/ATCC, 44900 nM. Moreover, the CC50 was 38000 nM with ACHN; 36700 nM in the data set on SN12C; above 100000 nM in the data set with SR; 8080 nM in the data set on COLO 205 (setting [1]); 35900 nM in the data set on OVCAR-4.

Regarding `O=C(N/N=C/c1cc([N+](=O)[O-])c[nH]1)c1[nH]c2ccc(Br)cc2c1-c1ccccc1` [Derivative 3q, (E)-5-Bromo-N′-((4-nitro-1H-pyrrol-2-yl)methylene)-3-phenyl-1H-indole-2-carbohydrazide], on porcine brain tubulin, the “tubulin inhibition” value was “no tubulin inhibition properties”. In addition, the GI50 with SF-268 stood at 774 nM; with PC-3, 724 nM; in the data set on SF-295, 623 nM; in the data set with DU-145 it was 3870 nM; in the data set on MDA-MB-468 it was 503 nM; in the data set on A549/ATCC, 1790 nM. Moreover, the 50% growth inhibitory concentration (GI50) in the data set with ACHN was found to be 791 nM; in the data set on SN12C, 2580 nM; with SR, 405 nM; with COLO 205 (setting [2]), 1280 nM; with OVCAR-4 it was 1060 nM. In addition, the CC50 in the data set with SF-268, with PC-3, in the data set on SF-295, in the data set on DU-145, in the data set on MDA-MB-468 and in the data set on A549/ATCC was above 100000 nM in each case. Also, the CC50 in the data set on ACHN, with SN12C, with SR, in the data set with COLO 205 (setting [1]) and in the data set on OVCAR-4 was above 100000 nM each time.

`CCc1ccc(/C=N/NC(=O)c2[nH]c3ccc(Br)cc3c2-c2ccccc2)[nH]1` [Derivative 3s, (E)-5-Bromo-N′-((5-ethyl-1H-pyrrol-2-yl)methylene)-3-phenyl-1H-indole-2-carbohydrazide]: on porcine brain tubulin, the “RFU in tubulin polymerization assay” value was around 55 arbitrary units. For the same compound, the concentration for 50% growth inhibition (GI50) in the data set with SF-268 is 1470 nM; with PC-3, 532 nM; in the data set on SF-295, 246 nM; with DU-145 it was 418 nM; in the data set on MDA-MB-468 it was 248 nM; in the data set with A549/ATCC, 399 nM. Besides, the GI50 with ACHN turned out to be 861 nM; in the data set on SN12C it was 392 nM; in the data set with SR, 419 nM; in the data set with COLO 205 (setting [2]) it was 316 nM; in the data set on OVCAR-4 it was 2410 nM. Besides, the CC50 in the data set with SF-268 was 83000 nM; in the data set with PC-3, above 100000 nM; with SF-295 it was 31900 nM; with DU-145, 36700 nM; with MDA-MB-468, 25900 nM; with A549/ATCC, 70300 nM. Besides, the CC50 was 36600 nM with ACHN; 30300 nM with SN12C; above 100000 nM in the data set on SR; 26100 nM with COLO 205 (setting [1]); 53700 nM in the data set on OVCAR-4.

On to `CCc1c[nH]c(/C=N/NC(=O)c2[nH]c3ccc(Br)cc3c2-c2ccccc2)c1` [Derivative 3t, (E)-5-Bromo-N′-((4-ethyl-1H-pyrrol-2-yl)methylene)-3-phenyl-1H-indole-2-carbohydrazide], for which the “RFU in tubulin polymerization assay” value at porcine brain tubulin is around 55 arbitrary units. In addition, the GI50 with SF-268 worked out at 861 nM; with PC-3 it was 529 nM; in the data set with SF-295, 319 nM; in the data set with DU-145, 380 nM; in the data set on MDA-MB-468 it was 263 nM; in the data set on A549/ATCC, 397 nM. In addition, the concentration for 50% growth inhibition (GI50) was determined as 628 nM in the data set on ACHN; 372 nM in the data set with SN12C; 446 nM in the data set with SR; 207 nM in the data set on COLO 205 (setting [2]); 2170 nM in the data set on OVCAR-4. Also, the CC50 in the data set on SF-268 is 51900 nM; in the data set with PC-3, 57000 nM; in the data set with SF-295, 24700 nM; in the data set with DU-145, 39500 nM; in the data set with MDA-MB-468, 9220 nM; in the data set with A549/ATCC it was 38800 nM. The CC50 in the data set with ACHN was 35500 nM; with SN12C it was 30000 nM; in the data set with SR, above 100000 nM; in the data set on OVCAR-4 it was 43000 nM.
